Source: ChEMBL document CHEMBL1146569, “The pterocellins, novel bioactive alkaloids from the marine bryozoan Pterocella vesiculosa” (J Nat Prod, 2003)

What was measured:
Format in all cases: functional
SNB-75 = experiment: Growth inhibition of human SNB75 cells; settings: read-out: LC50 (the source's name)
U-251 = experiment: Growth inhibition of human U251 cells
Malme-3M = experiment: Growth inhibition of human MALME-3M cells
M14 = experiment: Growth inhibition of human M14 cells
SK-MEL-2 = experiment: Growth inhibition of human SK-MEL-2 cells
SK-MEL-28 = experiment: Growth inhibition of human SK-MEL-28 cells
SK-MEL-5 = experiment: Growth inhibition of human SK-MEL-5 cells
UACC-257 = experiment: Growth inhibition of human UACC257 cells
UACC-62 = experiment: Growth inhibition of human UACC62 cells
IGROV-1 = experiment: Growth inhibition of human IGROV1 cells
OVCAR-3 = experiment: Growth inhibition of human OVCAR-3 cells
OVCAR-4 = experiment: Growth inhibition of human OVCAR4 cells
OVCAR-5 = experiment: Growth inhibition of human OVCAR5 cells
SK-OV-3 = experiment: Growth inhibition of human SKOV3 cells
ACHN = experiment: Growth inhibition of human ACHN cells
CAKI-1 = experiment: Growth inhibition of human Caki1 cells
RXF 393 = experiment: Growth inhibition of human RXF393 cells
SN12C = experiment: Growth inhibition of human SN12C cells
TK-10 = experiment: Growth inhibition of human TK10 cells
PC-3 = experiment: Growth inhibition of human PC3 cells
MDA-MB-435 = experiment: Growth inhibition of human MDA-MB-435 cells
MDA-N = experiment: Growth inhibition of human MDA-N cells
Amorphotheca resinae = experiment: Antimicrobial activity against Cladosporium resinae assessed per disk
[1] = read-out: LC50 (the source's name)

## COc1cn2c(cc1=O)C(=O)c1ccnc(CC(C)C)c1-2 [PTEROCELLIN A]
SNB-75
  CC50: 56.8 µM
U-251
  GI50: 2.2 µM
  TGI: 7.5 µM
U-251; [1]
  CC50: 42.5 µM
Malme-3M
  GI50: 0.1 µM
  TGI: 0.3 µM
Malme-3M; [1]
  CC50: 0.8 µM
M14
  GI50: 0.2 µM
  LC50 (concentration killing 50% of cells): 4.6 µM
  TGI: 0.8 µM
SK-MEL-2
  GI50: 1.9 µM
  TGI: 3.4 µM
SK-MEL-2; [1]
  CC50: 6.3 µM
SK-MEL-28
  GI50: 1.9 µM
  TGI: 4.2 µM
SK-MEL-28; [1]
  CC50: 9.3 µM
SK-MEL-5
  GI50: 0.2 µM
  TGI: 0.3 µM
SK-MEL-5; [1]
  CC50: 0.6 µM
UACC-257
  GI50: 1.1 µM
  TGI: 3 µM
UACC-257; [1]
  CC50: 7.9 µM
UACC-62
  GI50: 1.4 µM
  LC50 (50% cell kill): 6 µM
  TGI: 2.9 µM
IGROV-1
  GI50: 2.1 µM
  TGI: 5.4 µM
IGROV-1; [1]
  CC50: 18.4 µM
OVCAR-3
  GI50: 1.5 µM
  TGI: 4.6 µM
OVCAR-3; [1]
  CC50: 19.3 µM
OVCAR-4
  GI50: 1.7 µM
  LC50: 7.6 µM
  TGI: 3.6 µM
OVCAR-5
  GI50: 2 µM
  TGI: 3.4 µM
OVCAR-5; [1]
  CC50: 5.6 µM
SK-OV-3
  GI50: 6.1 µM
  TGI: 21.9 µM
SK-OV-3; [1]
  CC50: 59.2 µM
ACHN
  GI50: 2.3 µM
  TGI: 9.1 µM
ACHN; [1]
  CC50: > 100 µM
CAKI-1
  GI50: 2.1 µM
  TGI: 4.6 µM
CAKI-1; [1]
  CC50: 11.1 µM
RXF 393
  GI50: 3.2 µM
  LC50: 46.6 µM
  TGI: 12.3 µM
SN12C
  GI50: 1.7 µM
  LC50: 6.5 µM
  TGI: 3.3 µM
TK-10
  GI50: 3.1 µM
  TGI: 6.8 µM
TK-10; [1]
  CC50: 23.1 µM
PC-3
  GI50: 2.9 µM
  LC50 (concentration killing 50% of cells): 45.1 µM
  TGI: 8.4 µM
MDA-MB-435
  GI50: 0.2 µM
  TGI: 0.3 µM
MDA-MB-435; [1]
  CC50: 0.6 µM
MDA-N
  GI50: 0.2 µM
  TGI: 0.4 µM
MDA-N; [1]
  CC50: 0.6 µM
Amorphotheca resinae
  MIC: >60 µg
